Assay results taken from patent publication US10323031B2, “Pesticidally active tetracyclic derivatives with sulfur containing substituents” (Syngenta Participations AG, priority 2015, dated 2019).

Legend:
Assay type in all cases: in vivo
[1] = test system: Diabrotica Balteata (Corn root worm); assay: Diabrotica balteata larvae on maize sprouts (Example B2); settings: 96 h, application rate of 200 ppm, L2 larvae, 4 days after infestation, read-out: effect in at least one of the two categories (mortality or growth inhibition)
Description: Diabrotica Balteata (Corn root worm)
Maize sprouts placed onto an agar layer in 24-well microtiter plates were treated with aqueous test solutions prepared from 10,000 ppm DMSO stock solutions by spraying. After drying, the plates were infested with L2 larvae (6 to 10 per well). The samples were assessed for mortality and growth inhibition in comparison to untreated samples 4 days after infestation.

[2] = test system: Euschistus heros (Neotropical Brown Stink Bug); assay: Euschistus heros nymphs on soybean leaves (Example B3); settings: 120 h, application rate of 200 ppm, N2 nymphs, 5 days after infestation, read-out: effect in at least one of the two categories (mortality or growth inhibition)
Description: Euschistus heros (Neotropical Brown Stink Bug)
Soybean leaves on agar in 24-well microtiter plates were sprayed with aqueous test solutions prepared from 10,000 ppm DMSO stock solutions. After drying the leaves were infested with N2 nymphs. The samples were assessed for mortality and growth inhibition in comparison to untreated samples 5 days after infestation.

[3] = test system: Plutella xylostella (Diamond Back Moth); assay: Plutella xylostella larvae on artificial diet (Example B7); settings: 120 h, application rate of 200 ppm, L2 larvae, 5 days after infestation, read-out: effect in at least one of the two categories (mortality or growth inhibition)
Description: Plutella xylostella (Diamond Back Moth)
24-well microtiter plates with artificial diet were treated with aqueous test solutions prepared from 10,000 ppm DMSO stock solutions by pipetting. After drying, the plates were infested with L2 larvae (10 to 15 per well). The samples were assessed for mortality and growth inhibition in comparison to untreated samples 5 days after infestation.

[4] = test system: Spodoptera littoralis (Egyptian Cotton Leaf Worm); assay: Spodoptera littoralis on sprayed cotton leaf discs (Example B8); settings: foliar, 72 h, application rate of 200 ppm, L1 larvae, 3 days after infestation, read-out: control (mortality, anti-feeding effect, growth inhibition)
Description: (§1) Spodoptera littoralis (Egyptian Cotton Leaf Worm)
Cotton leaf discs were placed onto agar in 24-well microtiter plates and sprayed with aqueous test solutions prepared from 10,000 ppm DMSO stock solutions. After drying the leaf discs were infested with five L1 larvae. The samples were assessed for mortality, anti-feeding effect, and growth inhibition in comparison to untreated samples 3 days after infestation. Control of Spodoptera littoralis by a test sample is given when at least one of the categories mortality, anti-feedant effect, and growth inhibition is higher than the untreated sample.

[5] = test system: Tetranychus urticae (Two-spotted Spider Mite); assay: Tetranychus urticae feeding/contact activity (Example B10); settings: foliar, 192 h
Description: Tetranychus urticae (Two-spotted Spider Mite): Feeding/Contact Activity
Bean leaf discs on agar in 24-well microtiter plates were sprayed with aqueous test solutions prepared from 10,000 ppm DMSO stock solutions. After drying the leaf discs were infested with a mite population of mixed ages. The samples were assessed for mortality on mixed population (mobile stages) 8 days after infestation.

[6] = test system: Spodoptera littoralis (Egyptian Cotton Leaf Worm); assay: Spodoptera littoralis, uptake by lettuce roots from agar (Example B9); settings: 144 h, test rate of 12.5 ppm, lettuce grown on treated agar, eggs, 6 days after infestation, read-out: effect in at least one of the three categories (mortality, anti-feeding, or growth inhibition)
From the text: as §1
Test compounds were applied by pipette from 10,000 ppm DMSO stock solutions into 24-well plates and mixed with agar. Lettuce seeds were placed onto the agar and the multi well plate was closed by another plate which contained also agar. After 7 days the compound was absorbed by the roots and the lettuce grew into the lid plate. The lettuce leaves were then cut off into the lid plate. Spodoptera eggs were pipetted through a plastic stencil onto a humid gel blotting paper and the lid plate was closed with it. The samples were assessed for mortality, anti-feedant effect and growth inhibition in comparison to untreated samples 6 days after infestation.

[7] = test system: Frankliniella occidentalis (Western Flower Thrips); assay: Frankliniella occidentalis feeding/contact activity (Example B4); settings: foliar, 168 h, application rate of 200 ppm, sunflower leaf discs, population of mixed ages, 7 days after infestation
Description: Frankliniella occidentalis (Western Flower Thrips): Feeding/Contact Activity
Sunflower leaf discs were placed on agar in 24-well microtiter plates and sprayed with aqueous test solutions prepared from 10,000 DMSO stock solutions. After drying the leaf discs were infested with a Frankliniella population of mixed ages. The samples were assessed for mortality 7 days after infestation.

[8] = test system: Myzus persicae (Green Peach Aphid); assay: Myzus persicae feeding/contact activity (Example B5); settings: foliar, 144 h, application rate of 200 ppm, sunflower leaf discs, aphid population of mixed ages, 6 days after infestation
Description: Myzus persicae (Green Peach Aphid): Feeding/Contact Activity
Sunflower leaf discs were placed onto agar in a 24-well microtiter plate and sprayed with aqueous test solutions prepared from 10,000 ppm DMSO stock solutions. After drying, the leaf discs were infested with an aphid population of mixed ages. The samples were assessed for mortality 6 days after infestation.

[9] = test system: Myzus persicae (Green Peach Aphid); assay: Myzus persicae systemic activity (Example B6); settings: 144 h, test rate of 24 ppm, roots of pea seedlings in test solution, 6 days
Description: Myzus persicae (Green Peach Aphid): Systemic Activity
Roots of pea seedlings infested with an aphid population of mixed ages were placed directly into aqueous test solutions prepared from 10,000 DMSO stock solutions. The samples were assessed for mortality 6 days after placing seedlings into test solutions.

[10] = test system: Bemisia Tabaci (Cotton White Fly); assay: Bemisia tabaci feeding/contact activity (Example B1); settings: foliar, 144 h, application rate of 200 ppm, cotton leaf discs, adult white flies, 6 days after incubation
Description: Bemisia Tabaci (Cotton White Fly): Feeding/Contact Activity
Cotton leaf discs were placed on agar in 24-well microtiter plates and sprayed with aqueous test solutions prepared from 10,000 ppm DMSO stock solutions. After drying the leaf discs were infested with adult white flies. The samples were checked for mortality 6 days after incubation.

CCSc1cc2ccccc2cc1-c1nc2cc(C(F)(F)F)n(CC)c(=O)c2n1C [Compound A1, 5-ethyl-2-(3-ethylsulfanyl-2-naphthyl)-3-methyl-6-(trifluoromethyl)-3aH-imidazo[4,5-c]pyrid in-4-one]
≥ 80%: percent effect (mortality or growth inhibition) at 200 ppm [1] | percent effect (mortality or growth inhibition) at 200 ppm [2] | percent effect (mortality or growth inhibition) at 200 ppm [3] | mortality at 200 ppm [4]

CCn1c(C(F)(F)F)cc2nc(-c3cc4ccccc4cc3S(=O)(=O)CC)n(C)c2c1=O [Compound A2, 5-ethyl-2-(3-ethylsulfonyl-2-naphthyl)-3-methyl-6-(trifluoromethyl)-6H-im idazo[4,5-c]pyridin-4-one]
≥ 80%: mortality at 200 ppm [5] | percent effect (mortality or growth inhibition) at 200 ppm [1] | percent effect (mortality or growth inhibition) at 200 ppm [2] | percent effect (mortality or growth inhibition) at 200 ppm [3] | mortality at 200 ppm [4] | percent effect (mortality, anti-feeding or growth inhibition) at 12.5 ppm [6] | mortality at 200 ppm [7] | mortality at 200 ppm [8]

CCSc1cc2ccccc2nc1-c1nc2cc(C(F)(F)F)n(CC)c(=O)c2n1C [Compound A3, 5-ethyl-2-(3-ethylsulfanyl-2-quinolyl)-3-methyl-6-(trifluoromethyl)-3aH-imidazo[4,5-c]pyridin-4-one]
≥ 80%: percent effect (mortality or growth inhibition) at 200 ppm [1] | percent effect (mortality or growth inhibition) at 200 ppm [3] | mortality at 200 ppm [4] | mortality at 200 ppm [8]

CCSc1cc2c(cc1-c1nc3cc(C(F)(F)F)n(CC)c(=O)c3n1C)nc(C(F)(F)F)n2C [Compound A5, 5-ethyl-2-[6-ethylsulfanyl-1-methyl-2-(trifluoromethyl)benzimidazol-5-yl]-3-methyl-6-(trifluoromethyl)imidazo[4,5-c]pyridin-4-one]
≥ 80%: percent effect (mortality or growth inhibition) at 200 ppm [2] | mortality at 200 ppm [4]

CCn1c(C(F)(F)F)cc2nc(-c3cc4nc(C(F)(F)F)n(C)c4cc3S(=O)(=O)CC)n(C)c2c1=O [Compound A6, 5-ethyl-2-[6-ethylsulfonyl-1-methyl-2-(trifluoromethyl)benzimidazol-5-yl]-3-methyl-6-(trifluoromethyl)imidazo[4,5-c]pyridin-4-one]
≥ 80%: mortality at 24 ppm [9] | mortality at 200 ppm [10] | percent effect (mortality or growth inhibition) at 200 ppm [2] | percent effect (mortality or growth inhibition) at 200 ppm [3] | mortality at 200 ppm [4] | percent effect (mortality, anti-feeding or growth inhibition) at 12.5 ppm [6] | mortality at 200 ppm [7] | mortality at 200 ppm [8]

CCn1c(C(F)(F)F)cc2nc(-c3cc4ccncc4cc3S(=O)(=O)CC)n(C)c2c1=O [Compound A8, 5-ethyl-2-(7-ethylsulfonyl-6-isoquinolyl)-3-methyl-6-(trifluoromethyl)imidazo[4,5-c]pyridin-4-one]
≥ 80%: percent effect (mortality or growth inhibition) at 200 ppm [1] | percent effect (mortality or growth inhibition) at 200 ppm [2] | percent effect (mortality or growth inhibition) at 200 ppm [3] | mortality at 200 ppm [4]

CCn1c(C(F)(F)F)cc2nc(-c3cc4cc[n+]([O-])cc4cc3S(=O)(=O)CC)n(C)c2c1=O [Compound A9, 5-ethyl-2-(7-ethylsulfonyl-2-oxido-isoquinolin-2-ium-6-yl)-3-methyl-6-(trifluoromethyl)imidazo[4,5-c]pyridin-4-one]
≥ 80%: mortality at 24 ppm [9] | percent effect (mortality or growth inhibition) at 200 ppm [3] | mortality at 200 ppm [4]
